Measured values taken from article PMC5308254, “Bioactivity of Natural and Engineered Antimicrobial Peptides from Venom of the Scorpions Urodacus yaschenkoi and U. manicatus” (Toxins, 2017).
No end group written: not given here.

What was measured:
[1] = tested on: Staphylococcus aureus (DSM2569); assay: Growth inhibition assay (MIC), S. aureus; assay type: cell-based; details: 384-well plates, TSB, 37 °C, peptide 0.015–250 µM; growth totally inhibited; average of n ≥ 3; dash = no inhibition
Procedure: (§1) The minimal inhibitory concentration (MIC) of each AMPs was determined against the Gram-positive bacteria Listeria monocytogenes (DSM20600), L. grayi (DSM20601), L. fleischmannii (DSM24998), Staphylococcus aureus (DSM2569) and Micrococcus luteus (DSM20030), and the Gram-negative species Escherichia coli (D31) and Pseudomonas aeruginosa (DSM50071). The scorpion peptides were prepared at concentrations of 0.015–250 μM. The assays were carried out in 384-well plates (Greiner Bio One, Frickenhausen, Germany) using Brain Heart Infusion Broth (BHIB) medium for Listeria spp., Tryptic Soy Broth (TSB) for S. aureus, and lysogeny broth (LB) for the others. The bacteria were cultivated overnight at either 37 °C (Listeria spp., S. aureus, E. coli and P. aeruginosa) or 30 °C (M. luteus) and subcultured in fresh media before the growth inhibition assays. Growth inhibition was measured as previously described.

[2] = tested on: Listeria monocytogenes (DSM20600); assay: Growth inhibition assay (MIC), L. monocytogenes; assay type: cell-based; details: 384-well plates, BHIB, 37 °C, peptide 0.015–250 µM; growth totally inhibited; average of n ≥ 3; dash = no inhibition
Procedure: as §1

[3] = tested on: Micrococcus luteus (DSM20030); assay: Growth inhibition assay (MIC), M. luteus; assay type: cell-based; details: 384-well plates, LB, 30 °C, peptide 0.015–250 µM; MIC = concentration at which growth was totally inhibited; average of n ≥ 3; dash = no inhibition
Procedure: as §1

[4] = tested on: L. fleischmannii (DSM24998); assay: Growth inhibition assay (MIC), L. fleischmannii; assay type: cell-based, Listeria fleischmannii; details: 384-well plates, BHIB, 37 °C, peptide 0.015–250 µM; growth totally inhibited; average of n ≥ 3; dash = no inhibition
Procedure: as §1

[5] = tested on: L. grayi (DSM20601); assay: Growth inhibition assay (MIC), L. grayi; assay type: cell-based, Listeria grayi; details: 384-well plates, BHIB, 37 °C, peptide 0.015–250 µM; growth totally inhibited; average of n ≥ 3; dash = no inhibition
Procedure: as §1

[6] = Cytotoxicity, alamarBlue, BHK-21 cells; assay type: cell-based, hamster; details: hamster, 2 h at 37 °C, 0.1–100 µM, alamarBlue fluorescence, non-linear fit, concentration reducing viability by 50%, n ≥ 3, read-out: EC50 (effective cytotoxic concentration)
Procedure: (§2) Cytotoxicity was evaluated using the baby hamster kidney cell line (BHK-21) included in F2H®-Kit Basic (Chromotek, Planegg-Martinsried, Germany). The BHK-21 cells were grown in 25-cm^2 cell culture flasks (Greiner Bio One, Frickenhausen, Germany) containing Dulbecco’s Modified Eagle’s Medium (DMEM) supplemented with 4.5 g/L glucose, 110 mg/L sodium pyruvate and L-glutamine, and 10% fetal bovine serum (FBS), and were maintained in an NU-5810 incubator (ibs tecnomara, Fernwald, Germany) at 37 °C with a 5% CO2 atmosphere. The cells were subcultured at ~90% confluence by detaching with 0.25% trypsin and 0.03% EDTA (Sigma-Aldrich, St Louis, MO, USA). The AMPs were dissolved in water and diluted to final concentrations of 0.1, 1, 10 and 100 µM in DMEM.
(§3) BHK-21 cells were prepared and tested as previously described. Confluent cells were detached, counted and seeded at a concentration of 8.5 × 10^4 cell/mL in a 96-well culture plate (Greiner Bio One-Cell Star) 48 h before each experiment. The cells were rinsed with 100 µL PBS before adding 100 µL of the AMP solution and incubating for 2 h at 37 °C. The AMP solution was then removed and the cells were rinsed again with PBS before staining with 10% v/v alamarBlue™ Dye (Thermo Fisher Scientific, Schwerte, Germany) in DMEM for 1 h. The fluorescence of the metabolized alamarBlue™ Dye was measured in an Eon microplate reader using excitation and emission filters of 528 and 590 nm, respectively. DMEM and cells exposed to DMEM without AMPs were included as a blank reference and negative control, respectively. Four independent experiments were carried out for each AMP concentration in triplicate. To assess the percentage of viable cells compared to the control, the data were analyzed with GraphPad Prism v5.0 software using non-linear regression to fit the curve (Figure S2). The EC50 was reported as the AMP concentration that reduces cell viability by 50%.

[7] = tested on: baby hamster kidney cells (BHK21); assay: Cytotoxicity, alamarBlue, BHK-21 cells; assay type: cell-based; details: 2 h at 37 °C, 0.1–100 µM, alamarBlue fluorescence, non-linear fit, n ≥ 3
Procedure: as §2, §3

[8] = tested on: Escherichia coli (D31); assay: Growth inhibition assay (MIC), E. coli; assay type: cell-based; details: 384-well plates, LB, 37 °C, peptide 0.015–250 µM; growth totally inhibited; average of n ≥ 3; dash = no inhibition
Procedure: as §1

[9] = tested on: pig erythrocytes; assay: Hemolytic activity on pig erythrocytes; assay type: cell-based; details: for HC10 (hemolytic concentration) / HC90 (hemolytic concentration) / HC50 (hemolytic concentration) / percentage of hemolysis: 1 h at 37 °C; for HC10 (hemolytic concentration) / HC90 (hemolytic concentration) / HC50 (hemolytic concentration): 6.25–100 µM, absorbance 570 nm, non-linear fit; for HC10 (hemolytic concentration) / HC90 (hemolytic concentration): n ≥ 3; for HC50 (hemolytic concentration): n ≥ 3, n.c. (100) = not convergent at 100 µM; for percentage of hemolysis: 100 µM peptide (highest tested), 10% Triton X-100 = 100% hemolysis
Procedure: The hemolytic activity of each AMP was determined using pig erythrocytes. Serial dilutions (6.25–100 µM) of each AMP were prepared, and after incubation for 1 h at 37 °C the cells were centrifuged and the absorbance of the supernatant was measured at 570 nm using an Eon Microplate Spectrophotometer (BioTek Instruments, Winooski, VT, USA). Three independent experiments were carried out for each concentration in triplicate. PBS and 10% Triton X–100 were used as negative and positive controls, respectively. The percentage hemolysis was calculated using the formula 100((Apeptide–APBS)/(Atriton–APBS)). The AMP concentration causing 50% hemolysis (HC50) of the pig erythrocytes was determined by non-linear regression with the data fitted to the logistical sigmoidal equation, using GraphPad Prism v5.0 (GraphPad Software, San Diego, CA, USA) (Figure S2).

[10] = tested on: seven different bacteria; assay: Antibacterial activity against all seven bacteria tested (summary); assay type: cell-based; details: approximate overall value
Procedure: as §1

Substance	MIC S. aureus [1]	MIC L. monocytogenes [2]	MIC M. luteus [3]	MIC L. fleischmannii [4]	MIC L. grayi [5]	CC50 at 2 h [6]	EC10 (effective cytotoxic concentration) [7]	EC90 (effective cytotoxic concentration) [7]	MIC E. coli [8]	HC10 (hemolytic concentration) [9]	HC90 (hemolytic concentration) [9]	HC50 (hemolytic concentration) [9]	percentage of hemolysis [9]	hemolytic activity (in words) [9]	MIC against all seven bacteria tested [10]
FFSALLSGIKSLF-NH2 [Um4]	15 µM	8 µM	8 µM	4 µM	15 µM	87 µM	3.22 µM	261 µM	8 µM						
FLSTIWNGIKGLL-NH2 [Uy192]	15 µM	8 µM	15 µM	4 µM	15 µM	52 µM	1.92 µM	155.90 µM	15 µM	35.85 µM	675.22 µM	155.6 µM			
FLSTIWNGIKSLF-NH2 [D2]	8 µM	15 µM	4 µM	15 µM		377 µM	13.95 µM	1130 µM		2.94 µM	200.83 µM	24.48 µM	64%		
FPFLKLSLKIPKSAIKSAIKRL-NH2 [D10]		30 µM	0.25 µM	30 µM	8 µM	141 µM	5.24 µM	424.30 µM	8 µM	149.75 µM	19,894.17 µM	1726 µM	~ 10%		
FPFLLSLIPSAISAIKRL-NH2 [Uy234]		2 µM	2 µM		4 µM	6.29 µM	0.23 µM	18.86 µM		55.14 µM	198.04 µM	104.50 µM			
GFWGKLLEGVKKAI-NH2 [D5]		15 µM	8 µM	15 µM	8 µM	67.6 µM	2.50 µM	202.90 µM	15 µM	110.86 µM	24,141.72 µM	1636 µM	~ 10%		
GFWGKLWEGVKSAI-NH2 [Um3]	15 µM	8 µM	2 µM	4 µM	4 µM	63.7 µM	2.359 µM	191.1 µM	15 µM	70.48 µM	246.84 µM	126.2 µM			
GFWGKLWKPVKKAI-NH2 [D4]		30 µM	2 µM	15 µM	8 µM	980 µM	36.30 µM	2940 µM						no hemolytic activity	
GFWKGKLWKEGVKNAIK [D12, engineered AMP based on UyCT1 but with distributed lysine residues]															totally inactive
IFGAIWSGIKSLF-NH2 [D1]		4 µM	4 µM	4 µM	8 µM	18.6 µM	0.69 µM	55.75 µM	8 µM	15.50 µM	148.51 µM	48 µM			
IFKAIWSGIKSLF-NH2 [Um5]		2 µM	2 µM	2 µM	2 µM	9.71 µM	0.36 µM	29.12 µM	15 µM	11.944 µM	293.90 µM	59.25 µM			
ILSAIWSGIKGLL-NH2 [Uy17]	30 µM	15 µM	15 µM			73.6 µM	2.73 µM	220.80 µM		26.65 µM	718.55 µM	138.40 µM			
ILSAIWSGIKSLF-NH2 [UyCT3]		4 µM	4 µM	4 µM	8 µM	15.4 µM	0.57 µM	46.12 µM	8 µM	15.78 µM	214.22 µM	58.15 µM			
ISQSDAILSAIWSGIKSLF-NH2 [Um2]			4 µM			15.7 µM	0.58 µM	47.12 µM		2.36 µM	7033.22 µM	129 µM			
IWSAIWSGIKGLL-NH2 [UyCT5]	8 µM	4 µM	4 µM	8 µM	8 µM	24.6 µM	0.91 µM	73.65 µM	15 µM	2.39 µM	177.49 µM	20.59 µM	70%		
